{"source": "patent US10336735B2", "about": "“Small molecule inhibitors of fibrosis” (THE CALIFORNIA INSTITUTE FOR BIOMEDICAL RESEARCH, priority 2014, dated 2019)", "note": "pEC50: −log10 of the molar value."}
{"test_system": "primary human lung fibroblasts and primary rodent HSCs", "test": "High content imaging assay (α-SMA staining, cell morphology) of fibroblast to myofibroblast transdifferentiation, confirmed by Western blot and RT-PCR", "conditions": "Homo sapiens, Fibroblast; imaging and western based activity", "summary_of_the_method": "(§1)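 Primary human lung fibroblasts and primary rodent HSCs were serum-starved and then TGF-β-treated to drive transdifferentiation in 384-well format, with SB-431542 as positive control. Readouts were α-SMA immunofluorescence and cell morphology by high-content imaging, confirmed by Western blot and RT-PCR in 4-day, 4-point dose-response assays; EC50 values are graded.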"}
{"smiles": "CCC(C)n1ncn(-c2ccc(N3CCN(c4ccc(OC(C)[C@@H]5CO[C@@](Cn6nccn6)(c6ccccc6)O5)cc4)CC3)cc2)c1=O", "note": "(stereo partly shown) [Compound 140]", "pEC50": "4.52 to 5.30"}
{"smiles": "CCC(C)n1ncn(-c2ccc(N3CCN(c4ccc(OCCO[C@@H](Cn5nccn5)c5ccccc5)cc4)CC3)cc2)c1=O", "note": "(stereo partly shown) [Compound 141]", "pEC50": "< 4.52"}
{"smiles": "CCC(C)n1ncn(-c2ccc(N3CCN(c4ccc(OCCCO[C@@H](Cn5nccn5)c5ccccc5)cc4)CC3)cc2)c1=O", "note": "(stereo partly shown) [Compound 142]", "pEC50": "< 4.52"}
{"smiles": "CCC(C)n1ncn(-c2ccc(N3CCN(c4ccc(OC[C@@H]5CO[C@@](Cn6nccn6)(c6ccccc6)C5)cc4)CC3)cc2)c1=O", "note": "(stereo partly shown) [Compound 143]", "pEC50": "4.52 to 5.30"}
{"smiles": "CCC(CC)n1ncn(-c2ccc(N3CCN(c4ccc(OC[C@H]5CO[C@](Cn6nccn6)(c6ccccc6)C5)cc4C#N)CC3)cc2)c1=O", "note": "[Compound 144]", "pEC50": "< 4.52"}
{"smiles": "O=c1n(-c2ccc(N3CCN(c4ccc(OC[C@H]5CO[C@](Cn6nccn6)(c6ccccc6)C5)cc4F)CC3)cc2)cnn1CC1CCCC1", "note": "[Compound 145]", "pEC50": "4.52 to 5.30"}
{"smiles": "N#Cc1cc(OC[C@H]2CO[C@](Cn3nccn3)(c3ccccc3)C2)ccc1N1CCN(c2ccc(-n3cnn(CC4CCCC4)c3=O)cc2)CC1", "note": "[Compound 146]", "pEC50": "< 4.52"}
{"smiles": "CCC(C)n1ncn(-c2ccc(N3CCN(c4ccc(OC[C@H]5CO[C@](Cn6nccn6)(c6ccccc6)C5)cc4)CC3)cc2)c1=O", "note": "(stereo partly shown) [Compound 147]", "pEC50": "< 4.52"}
{"smiles": "CCC(C)n1ncn(-c2ccc(N3CCN(c4ccc(OC[C@H]5CO[C@](Cn6nccn6)(c6ccccc6)C5)cc4F)CC3)cc2)c1=O", "note": "(stereo partly shown) [Compound 148]", "pEC50": "< 4.52"}
{"smiles": "CCC(C)n1ncn(-c2ccc(N3CCN(c4ccc(OC[C@H]5CO[C@](Cn6nccn6)(c6ccccc6)C5)cc4C#N)CC3)cc2)c1=O", "note": "(stereo partly shown) [Compound 149]", "pEC50": "< 4.52"}
{"smiles": "CCC(C)n1cnn(-c2ccc(N3CCN(c4ccc(OC[C@@H]5CO[C@@](Cc6ccccc6)(c6ccccc6)O5)cc4)CC3)cc2)c1=O", "note": "(stereo partly shown) [Compound 150]", "pEC50": "< 4.52"}
{"smiles": "CC1(CCn2ncn(-c3ccc(N4CCN(c5ccc(OC[C@@H]6CO[C@@](Cn7cncn7)(c7ccc(Br)cc7)O6)cc5)CC4)cc3)c2=O)N=N1", "note": "[Compound 151]", "pEC50": "5.30 to 6.30"}
{"smiles": "CCC(CC)n1ncn(-c2ccc(N3CCN(c4ccc(OC[C@@H]5CO[C@@](Cn6nccn6)(c6ccc(Cl)cc6Cl)O5)cc4C#N)CC3)cc2)c1=O", "note": "[Compound 152]", "pEC50": "4.52 to 5.30"}
{"smiles": "O=c1n(-c2ccc(N3CCN(c4ccc(OC[C@@H]5CO[C@@](Cn6nccn6)(c6ccc(Cl)cc6Cl)O5)cc4F)CC3)cc2)cnn1CC1CCCC1", "note": "[Compound 154]", "pEC50": "> 6.30"}
{"smiles": "CCC(CC)n1ncn(-c2ccc(N3CCN(c4ccc(OC[C@@H]5CO[C@@](Cn6nccn6)(c6ccccc6)O5)cc4C#N)CC3)cc2)c1=O", "note": "[Compound 155]", "pEC50": "> 6.30"}
{"smiles": "N#Cc1cc(OC[C@@H]2CO[C@@](Cn3nccn3)(c3ccccc3)O2)ccc1N1CCN(c2ccc(-n3cnn(CC4CCCC4)c3=O)cc2)CC1", "note": "[Compound 156]", "pEC50": "5.30 to 6.30"}
{"smiles": "O=c1n(-c2ccc(N3CCN(c4ccc(OC[C@@H]5CO[C@@](Cn6nccn6)(c6ccccc6)O5)cc4F)CC3)cc2)cnn1CC1CCCC1", "note": "[Compound 157]", "pEC50": "> 6.30"}
{"smiles": "CCC(CC)n1ncn(-c2ccc(N3CCN(c4ccc(OC[C@H]5CO[C@](Cn6nccn6)(c6ccccc6)O5)cc4)CC3)cc2)c1=O", "note": "[Compound 160]", "pEC50": "> 6.30"}
{"smiles": "CCC(CC)n1ncn(-c2ccc(N3CCN(c4ccc(OC[C@@H]5CO[C@@](Cn6nccn6)(c6ccccc6)O5)cc4)CC3)cc2)c1=O", "note": "[Compound 161]", "pEC50": "> 6.30"}
{"smiles": "O=c1n(-c2ccc(N3CCN(c4ccc(OC[C@H]5CO[C@](Cn6nccn6)(c6ccc(Cl)cc6Cl)O5)cc4F)CC3)cc2)cnn1CC1CCCC1", "note": "[Compound 163]", "pEC50": "> 6.30"}
{"smiles": "CCC(CC)n1ncn(-c2ccc(N3CCN(c4ccc(OC[C@@H]5CO[C@@](Cn6nccn6)(c6ccc(Cl)cc6Cl)O5)cc4F)CC3)cc2)c1=O", "note": "[Compound 164]", "pEC50": "> 6.30"}
{"smiles": "CCC(CC)n1ncn(-c2ccc(N3CCN(c4ccc(OC[C@H]5CO[C@](Cn6nccn6)(c6ccc(Cl)cc6Cl)O5)cc4F)CC3)cc2)c1=O", "note": "[Compound 165]", "pEC50": "> 6.30"}
{"smiles": "CCC(CC)n1ncn(-c2ccc(N3CCN(c4ccc(OC[C@@H]5CO[C@@](Cn6cccn6)(c6ccccc6)O5)cc4)CC3)cc2)c1=O", "note": "[Compound 166]", "pEC50": "> 6.30"}
{"smiles": "CCC(CC)n1ncn(-c2ccc(N3CCN(c4ccc(OC[C@H]5CO[C@](Cn6cccn6)(c6ccccc6)O5)cc4)CC3)cc2)c1=O", "note": "[Compound 167]", "pEC50": "> 6.30"}
{"smiles": "CC[C@H](C)n1ncn(-c2ccc(N3CCN(c4ccc(OC[C@@H]5CO[C@@](Cn6cccn6)(c6ccccc6)O5)cc4)CC3)cc2)c1=O", "note": "[Compound 168]", "pEC50": "> 6.30"}
{"smiles": "CC[C@@H](C)n1ncn(-c2ccc(N3CCN(c4ccc(OC[C@@H]5CO[C@@](Cn6cccn6)(c6ccccc6)O5)cc4)CC3)cc2)c1=O", "note": "[Compound 169]", "pEC50": "> 6.30"}
{"smiles": "CC[C@H](C)n1ncn(-c2ccc(N3CCN(c4ccc(OC[C@H]5CO[C@](Cn6cccn6)(c6ccccc6)O5)cc4)CC3)cc2)c1=O", "note": "[Compound 170]", "pEC50": "> 6.30"}
{"smiles": "CC[C@@H](C)n1ncn(-c2ccc(N3CCN(c4ccc(OC[C@H]5CO[C@](Cn6cccn6)(c6ccccc6)O5)cc4)CC3)cc2)c1=O", "note": "[Compound 171]", "pEC50": "> 6.30"}
{"smiles": "CC[C@H](C)n1ncn(-c2ccc(N3CCN(c4ccc(OC[C@@H]5CO[C@@](Cn6cccn6)(c6ccc(C#N)cc6C)O5)cc4)CC3)cc2)c1=O", "note": "[Compound 172]", "pEC50": "5.30 to 6.30"}
{"smiles": "CC[C@@H](C)n1ncn(-c2ccc(N3CCN(c4ccc(OC[C@@H]5CO[C@@](Cn6cccn6)(c6ccc(C#N)cc6C)O5)cc4)CC3)cc2)c1=O", "note": "[Compound 173]", "pEC50": "5.30 to 6.30"}
{"smiles": "CC[C@H](C)n1ncn(-c2ccc(N3CCN(c4ccc(OC[C@H]5CO[C@](Cn6cccn6)(c6ccc(C#N)cc6C)O5)cc4)CC3)cc2)c1=O", "note": "[Compound 174]", "pEC50": "5.30 to 6.30"}
{"smiles": "CC[C@@H](C)n1ncn(-c2ccc(N3CCN(c4ccc(OC[C@H]5CO[C@](Cn6cccn6)(c6ccc(C#N)cc6C)O5)cc4)CC3)cc2)c1=O", "note": "[Compound 175]", "pEC50": "4.52 to 5.30"}
{"smiles": "CCC(CC)n1ncn(-c2ccc(N3CCN(c4ccc(OC[C@@H]5CO[C@@](Cn6cccn6)(c6ccc(C#N)cc6C)O5)cc4)CC3)cc2)c1=O", "note": "[Compound 176]", "pEC50": "> 6.30"}
{"smiles": "CCC(CC)n1ncn(-c2ccc(N3CCN(c4ccc(OC[C@H]5CO[C@](Cn6cccn6)(c6ccc(C#N)cc6C)O5)cc4)CC3)cc2)c1=O", "note": "[Compound 177]", "pEC50": "5.30 to 6.30"}
{"smiles": "CCC(C)n1ncn(-c2ccc(N3CCN(c4ccc(OC[C@@H]5CO[C@@](Cn6nccn6)(c6ccccc6)O5)cc4)CC3)cc2)c1=O", "note": "(stereo partly shown) [Compound 178]", "pEC50": "> 6.30"}
{"smiles": "CC[C@@H](C)n1ncn(-c2ccc(N3CCN(c4ccc(OC[C@@H]5CO[C@@](Cn6nccn6)(c6ccccc6)O5)cc4)CC3)cc2)c1=O", "note": "[Compound 179, 4-(4-(4-(4-(((2S,4R)-2-((2H-1,2,3-triazol-2-yl)methyl)-2-phenyl-1,3-dioxolan-4-yl)methoxy)phenyl)piperazin-1-yl)phenyl)-(R)-1-sec-butyl-1H-1,2,4-triazol-5(4H)-one]", "pEC50": "> 6.30"}
{"smiles": "CC[C@H](C)n1ncn(-c2ccc(N3CCN(c4ccc(OC[C@@H]5CO[C@@](Cn6nccn6)(c6ccccc6)O5)cc4)CC3)cc2)c1=O", "note": "[Compound 180, 4-(4-(4-(4-(((2S,4R)-2-((2H-1,2,3-triazol-2-yl)methyl)-2-phenyl-1,3-dioxolan-4-yl)methoxy)phenyl)piperazin-1-yl)phenyl)-(S)-1-sec-butyl-1H-1,2,4-triazol-5(4H)-one]", "pEC50": "> 6.30"}
{"smiles": "CCC(C)n1ncn(-c2ccc(N3CCN(c4ccc(OC[C@H]5CO[C@](Cn6nccn6)(c6ccccc6)O5)cc4)CC3)cc2)c1=O", "note": "(stereo partly shown) [Compound 181]", "pEC50": "> 6.30"}
{"smiles": "CC[C@@H](C)n1ncn(-c2ccc(N3CCN(c4ccc(OC[C@H]5CO[C@](Cn6nccn6)(c6ccccc6)O5)cc4)CC3)cc2)c1=O", "note": "[Compound 182, 4-(4-(4-(4-(((2R,4S)-2-((2H-1,2,3-triazol-2-yl)methyl)-2-phenyl-1,3-dioxolan-4-yl)methoxy)phenyl)piperazin-1-yl)phenyl)-(R)-1-sec-butyl-1H-1,2,4-triazol-5(4H)-one]", "pEC50": "> 6.30"}
{"smiles": "CC[C@H](C)n1ncn(-c2ccc(N3CCN(c4ccc(OC[C@H]5CO[C@](Cn6nccn6)(c6ccccc6)O5)cc4)CC3)cc2)c1=O", "note": "[Compound 183, 4-(4-(4-(4-(((2R,4S)-2-((2H-1,2,3-triazol-2-yl)methyl)-2-phenyl-1,3-dioxolan-4-yl)methoxy)phenyl)piperazin-1-yl)phenyl)-(S)-1-sec-butyl-1H-1,2,4-triazol-5(4H)-one]", "pEC50": "> 6.30"}
{"smiles": "CC[C@@H](C)n1ncn(-c2ccc(N3CCN(c4ccc(OC[C@H]5CO[C@@](Cn6nccn6)(c6ccccc6)O5)cc4)CC3)cc2)c1=O", "note": "[Compound 184]", "pEC50": "> 6.30"}
{"smiles": "CC[C@H](C)n1ncn(-c2ccc(N3CCN(c4ccc(OC[C@H]5CO[C@@](Cn6nccn6)(c6ccccc6)O5)cc4)CC3)cc2)c1=O", "note": "[Compound 185]", "pEC50": "> 6.30"}
{"smiles": "CCC(C)n1ncn(-c2ccc(N3CCN(c4ccc(OC[C@@H]5CO[C@](Cn6nccn6)(c6ccccc6)O5)cc4)CC3)cc2)c1=O", "note": "(stereo partly shown) [Compound 186]", "pEC50": "4.52 to 5.30"}
{"smiles": "CCC(C)n1ncn(-c2ccc(N3CCN(c4ccc(OC[C@H]5CO[C@@](Cn6nccn6)(c6ccccc6)O5)cc4)CC3)cc2)c1=O", "note": "(stereo partly shown) [Compound 188]", "pEC50": "4.52 to 5.30"}
{"smiles": "CC[C@@H](C)n1ncn(-c2ccc(N3CCN(c4ccc(OC[C@@H]5CO[C@](Cn6nccn6)(c6ccccc6)O5)cc4)CC3)cc2)c1=O", "note": "[Compound 189]", "pEC50": "4.52 to 5.30"}
{"smiles": "CC[C@H](C)n1ncn(-c2ccc(N3CCN(c4ccc(OC[C@@H]5CO[C@](Cn6nccn6)(c6ccccc6)O5)cc4)CC3)cc2)c1=O", "note": "[Compound 190]", "pEC50": "5.30 to 6.30"}
{"smiles": "C#CCCCn1ncn(-c2ccc(N3CCN(c4ccc(OC[C@@H]5CO[C@@](Cn6cncn6)(c6ccc(N=[N+]=[N-])cc6)O5)cc4)CC3)cc2)c1=O", "note": "[Compound 191]", "pEC50": "5.30 to 6.30"}
{"smiles": "C#Cc1ccc([C@]2(Cn3cncn3)OC[C@@H](COc3ccc(N4CCN(c5ccc(-n6cnn(CCC7(C)N=N7)c6=O)cc5)CC4)cc3)O2)cc1", "note": "[Compound 192]", "pEC50": "5.30 to 6.30"}
{"test_system": "primary human lung fibroblasts and primary rodent HSCs", "test": "High content imaging assay (α-SMA staining, cell morphology) of fibroblast to myofibroblast transdifferentiation, confirmed by Western blot and RT-PCR", "conditions": "imaging and western based activity", "summary_of_the_method": "as §1"}
{"smiles": "CCC(C)n1ncn(-c2ccc(N3CCN(c4ccc(OC[C@@H]5CO[C@](Cn6nccn6)(c6ccccc6)O5)cc4)CC3)cc2)c1=O", "note": "(stereo partly shown) [Compound 187]", "pEC50": "4.52 to 5.30"}
